From article PMC11062899, “De novo development of small cyclic peptides that are orally bioavailable” (Nature Chemical Biology, 2023)
“And” between values parts separate entries of the source, which are not always exact repeats. Equal values may be shown once. Read-outs that look alike come from different tables or passages of the source.

Assays:
rat α-thrombin = biological target: T1, rat α-thrombin (Rattus norvegicus, UniProt P18292); assay: Protease inhibition, Ki for rat α-thrombin (fluorogenic substrate Z-Gly-Gly-Arg-AMC); format: biochemical; settings: for Rat alpha thrombin inhibition, slope normalized to DMSO: replicates R1-R3
T1 construct: rat α-thrombin (Molecular Innovations) were used at final concentrations of 2 nM and 3 nM; purchased Molecular Innovations
Protocol: (§1) The inhibition constants (Ki) of cyclic peptides were calculated by measuring thrombin inhibition in the presence of different concentrations of the cyclic peptides. […] Human α-thrombin (Molecular Innovations) and rat α-thrombin (Molecular Innovations) were used at final concentrations of 2 nM and 3 nM, respectively, and fluorogenic substrate (Z-Gly-Gly-Arg-AMC, Bachem) was used at a concentration of 50 μM. Enzymatic activity was determined by measuring fluorescent gain on a Tecan Infinite M200 Pro microplate reader (excitation: 360 nm, emission: 465 nm) or a PHERAstar FSX microplate reader (excitation: 380 nm, emission: 440 nm) for 30 min at 25 °C with a fluorescent readout every 3 min. The two instruments were controlled with Tecan Infinite M200 Pro instrument software (iControl, version 1.12) and PHERAstar FSX software (version 5.70, edition 8), respectively. Protease inhibition was calculated by comparing the enzymatic activity to a control without cyclic peptide.
(§2) Half maximal inhibitory concentration (IC50) values were determined using a four-parameter logistic regression model in GraphPad Prism 9 to fit sigmoidal curves to the acquired data points according to equation (2) below.2 y=b+a−b/1+10^(logIC50−x)p where a and b represent the measured inhibition maximum and minimum, respectively; x is the logarithm of peptide concentration; y is the thrombin activity compared to a control without the cyclic peptide; and p is the Hill coefficient.
(§3) Ki values were calculated using the IC50 and the Cheng–Prusoff equation (equation (3)).3 Ki=IC50/1+S0/Km where Km is the Michaelis–Menten constant of the enzyme for the substrate used in the assay, and [S]0 is the initial substrate concentration.

human α-thrombin = human α-thrombin (Homo sapiens, UniProt P00734); assay: Protease inhibition, Ki for human α-thrombin (fluorogenic substrate Z-Gly-Gly-Arg-AMC); format: biochemical; settings: for Human alpha thrombin inhibition, slope normalized to DMSO: replicates R1-R3
Protocol: as §1, §2, §3

[1] = Passive artificial membrane permeability (PAMPA);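 on Permeability% Average: top well sample relative to theoretical equilibrium sample by TIC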
[2] = peptide concentration 1.00E+02 uM
[3] = peptide concentration 1.19E-05 uM
[4] = peptide concentration 1.22E-02 uM
[5] = peptide concentration 1.25E+01 uM
[6] = peptide concentration 1.53E-03 uM
[7] = peptide concentration 1.56E+00 uM
[8] = peptide concentration 1.91E-04 uM
[9] = peptide concentration 1.95E-01 uM
[10] = peptide concentration 2.38E-05 uM
[11] = peptide concentration 2.44E-02 uM
[12] = peptide concentration 2.50E+01 uM
[13] = peptide concentration 3.05E-03 uM
[14] = peptide concentration 3.12E+00 uM
[15] = peptide concentration 3.81E-04 uM
[16] = peptide concentration 3.91E-01 uM
[17] = peptide concentration 4.77E-05 uM
[18] = peptide concentration 4.88E-02 uM
[19] = peptide concentration 5.00E+01 uM
[20] = peptide concentration 6.10E-03 uM
[21] = peptide concentration 6.25E+00 uM
[22] = peptide concentration 7.63E-04 uM
[23] = peptide concentration 7.81E-01 uM
[24] = peptide concentration 9.54E-05 uM
[25] = peptide concentration 9.77E-02 uM

## O=C1C[C@H]2CCCN2C(=O)[C@H](Cc2ccccc2)NC(=O)[C@@H](NC(=O)c2ccc(Cl)s2)CC=CCCN1 [compound 38]
Rat α-thrombin; average of R1-R3, read-out: Rat alpha thrombin inhibition, Ki Average
  Ki: 5.05 µM
Rat α-thrombin; [2]
  Rat alpha thrombin inhibition, slope normalized to DMSO: 15.8 and 16.4 and 8.2
Rat α-thrombin; [3]
  Rat alpha thrombin inhibition, slope normalized to DMSO: 106.1 and 100.1 and 101.4
Rat α-thrombin; [4]
  Rat alpha thrombin inhibition, slope normalized to DMSO: 97.4 and 88.6 and 86.5
Rat α-thrombin; [5]
  Rat alpha thrombin inhibition, slope normalized to DMSO: 49.8 and 47.2 and 35.5
Rat α-thrombin; [6]
  Rat alpha thrombin inhibition, slope normalized to DMSO: 108.8 and 100.7 and 95.7
Rat α-thrombin; [7]
  Rat alpha thrombin inhibition, slope normalized to DMSO: 89.9 and 88.6 and 50.7
Rat α-thrombin; [8]
  Rat alpha thrombin inhibition, slope normalized to DMSO: 112.7 and 100.1 and 96.0
Rat α-thrombin; [9]
  Rat alpha thrombin inhibition, slope normalized to DMSO: 101.4 and 102.2 and 81.9
Rat α-thrombin; [10]
  Rat alpha thrombin inhibition, slope normalized to DMSO: 107.4 and 102.3 and 104.3
Rat α-thrombin; [11]
  Rat alpha thrombin inhibition, slope normalized to DMSO: 116.5 and 84.1 and 102.5
Rat α-thrombin; [12]
  Rat alpha thrombin inhibition, slope normalized to DMSO: 36.8 and 26.2 and 18.8
Rat α-thrombin; [13]
  Rat alpha thrombin inhibition, slope normalized to DMSO: 100.6 and 93.4 and 89.7
Rat α-thrombin; [14]
  Rat alpha thrombin inhibition, slope normalized to DMSO: 83.7 and 72.5 and 77.4
Rat α-thrombin; [15]
  Rat alpha thrombin inhibition, slope normalized to DMSO: 105.1 and 100.1 and 102.4
Rat α-thrombin; [16]
  Rat alpha thrombin inhibition, slope normalized to DMSO: 105.0 and 93.1 and 59.9
Rat α-thrombin; [17]
  Rat alpha thrombin inhibition, slope normalized to DMSO: 108.7 and 101.6 and 109.2
Rat α-thrombin; [18]
  Rat alpha thrombin inhibition, slope normalized to DMSO: 113.8 and 100.8 and 93.5
Rat α-thrombin; [19]
  Rat alpha thrombin inhibition, slope normalized to DMSO: 30.2 and 11.5 and 16.5
Rat α-thrombin; [20]
  Rat alpha thrombin inhibition, slope normalized to DMSO: 96.7 and 102.7 and 104.0
Rat α-thrombin; [21]
  Rat alpha thrombin inhibition, slope normalized to DMSO: 71.7 and 61.7 and 68.8
Rat α-thrombin; [22]
  Rat alpha thrombin inhibition, slope normalized to DMSO: 91.7 and 100.9 and 102.6
Rat α-thrombin; [23]
  Rat alpha thrombin inhibition, slope normalized to DMSO: 88.3 and 82.4 and 91.2
Rat α-thrombin; [24]
  Rat alpha thrombin inhibition, slope normalized to DMSO: 111.4 and 103.7 and 104.6
Rat α-thrombin; [25]
  Rat alpha thrombin inhibition, slope normalized to DMSO: 106.1 and 99.6 and 107.1
Rat α-thrombin; single replicates R1-R3, read-out: Rat alpha thrombin inhibition, IC50
  IC50: 11.8 µM and 9.26 µM and 6.34 µM
Rat α-thrombin; single replicates R1-R3, read-out: Rat alpha thrombin inhibition, Ki
  Ki: 6.5 µM and 5.12 µM and 3.51 µM
Human α-thrombin; average of R1-R3, read-out: Human alpha thrombin inhibition, Ki Average
  Ki: 13.5 µM
Human α-thrombin; [2]
  Human alpha thrombin inhibition, slope normalized to DMSO: 31.6 and 35.9 and 30.7
Human α-thrombin; [3]
  Human alpha thrombin inhibition, slope normalized to DMSO: 101.3 and 100.2 and 102.3
Human α-thrombin; [4]
  Human alpha thrombin inhibition, slope normalized to DMSO: 84.3 and 92.4 and 75.3
Human α-thrombin; [5]
  Human alpha thrombin inhibition, slope normalized to DMSO: 48.4 and 51.8 and 74.4
Human α-thrombin; [6]
  Human alpha thrombin inhibition, slope normalized to DMSO: 103.9 and 109.7 and 90.7
Human α-thrombin; [7]
  Human alpha thrombin inhibition, slope normalized to DMSO: 99.7 and 78.4 and 78.8
Human α-thrombin; [8]
  Human alpha thrombin inhibition, slope normalized to DMSO: 77.5 and 96.9 and 61.6
Human α-thrombin; [9]
  Human alpha thrombin inhibition, slope normalized to DMSO: 89.1 and 92.2 and 110.9
Human α-thrombin; [10]
  Human alpha thrombin inhibition, slope normalized to DMSO: 100.0 and 95.0 and 108.2
Human α-thrombin; [11]
  Human alpha thrombin inhibition, slope normalized to DMSO: 94.6 and 85.5 and 101.2
Human α-thrombin; [12]
  Human alpha thrombin inhibition, slope normalized to DMSO: 53.9 and 24.7 and 59.2
Human α-thrombin; [13]
  Human alpha thrombin inhibition, slope normalized to DMSO: 85.8 and 106.8 and 92.3
Human α-thrombin; [14]
  Human alpha thrombin inhibition, slope normalized to DMSO: 95.0 and 56.6 and 60.0
Human α-thrombin; [15]
  Human alpha thrombin inhibition, slope normalized to DMSO: 92.8 and 100.9 and 102.1
Human α-thrombin; [16]
  Human alpha thrombin inhibition, slope normalized to DMSO: 92.5 and 76.5 and 47.1
Human α-thrombin; [17]
  Human alpha thrombin inhibition, slope normalized to DMSO: 103.7 and 96.6 and 101.3
Human α-thrombin; [18]
  Human alpha thrombin inhibition, slope normalized to DMSO: 96.6 and 92.9 and 84.5
Human α-thrombin; [19]
  Human alpha thrombin inhibition, slope normalized to DMSO: 32.5 and 38.9 and 43.6
Human α-thrombin; [20]
  Human alpha thrombin inhibition, slope normalized to DMSO: 87.4 and 95.7 and 97.4
Human α-thrombin; [21]
  Human alpha thrombin inhibition, slope normalized to DMSO: 82.6 and 51.0 and 64.7
Human α-thrombin; [22]
  Human alpha thrombin inhibition, slope normalized to DMSO: 95.6 and 106.3 and 100.0
Human α-thrombin; [23]
  Human alpha thrombin inhibition, slope normalized to DMSO: 102.1 and 69.9 and 79.9
Human α-thrombin; [24]
  Human alpha thrombin inhibition, slope normalized to DMSO: 104.1 and 95.0 and 102.4
Human α-thrombin; [25]
  Human alpha thrombin inhibition, slope normalized to DMSO: 95.1 and 96.0 and 81.6
[1]; 50 μM, 12–18 h, acceptor concentration relative to equilibrium
  PAMPA permeability: % permeability: 32 ± 6%
[1]; 50 μM, 13 h (Fig. 5d)
  Permeability% (single replicates R1–R3): 25.39% and 36.84% and 33.06%
  Permeability% Average: 31.8%
[1]; PAMPA, pH 7.4
  Papp at 50 μM: 3.47 ×10⁻⁶ cm/s
